In PMC11722533, “Discovery and mechanism of a highly selective, antifungal acetyl CoA synthetase inhibitor” (Research Square, 2025) one finds IC50 and stoichiometry N data, which are given here for three compounds.

The target in assay [1] is T1, CnAcs1 (acetyl CoA synthetase) (Cryptococcus neoformans, UniProt J9VFT1).
T1 construct: gene CNAG_00797; His-tagged recombinant CnAcs1 expressed in E. coli
T1 sequence (J9VFT1 1-680): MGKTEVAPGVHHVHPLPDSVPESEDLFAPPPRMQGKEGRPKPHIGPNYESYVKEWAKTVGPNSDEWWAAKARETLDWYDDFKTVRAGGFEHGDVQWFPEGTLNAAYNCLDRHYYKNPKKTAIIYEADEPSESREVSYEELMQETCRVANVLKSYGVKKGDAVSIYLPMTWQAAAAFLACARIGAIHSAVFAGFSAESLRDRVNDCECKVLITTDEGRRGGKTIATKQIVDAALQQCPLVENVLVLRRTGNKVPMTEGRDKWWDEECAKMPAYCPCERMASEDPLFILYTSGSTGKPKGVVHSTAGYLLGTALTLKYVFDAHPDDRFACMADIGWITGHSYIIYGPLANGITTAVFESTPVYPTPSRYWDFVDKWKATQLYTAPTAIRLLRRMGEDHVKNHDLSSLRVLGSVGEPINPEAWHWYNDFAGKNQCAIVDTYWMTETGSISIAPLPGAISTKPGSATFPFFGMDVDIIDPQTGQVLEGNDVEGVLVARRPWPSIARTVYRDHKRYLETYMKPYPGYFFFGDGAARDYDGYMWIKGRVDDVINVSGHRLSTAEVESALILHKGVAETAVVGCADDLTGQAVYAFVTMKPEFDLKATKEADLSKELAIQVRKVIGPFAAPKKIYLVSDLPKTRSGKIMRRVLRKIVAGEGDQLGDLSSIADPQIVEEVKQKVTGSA
Briefly: X-ray co-crystal structure. It is filed as biochemical. The following applies: cited from earlier work. The source says:
X-ray co-crystal structure on CnAcs1 (acetyl CoA synthetase) | we obtained an X-ray crystal structure of CnAcs1 bound to the cyclopropyl-AMP ester

Assay [2] deals with Cryptococcus neoformans Acs1 (acetyl CoA synthetase) (C. neoformans). The assay can be described thus: mass photometry; single molecule, in solution, to low concentrations; with and without supra-inhibitory isoxazole 1 (apparent size unchanged).
For assay [3] the target is unchanged. Briefly: crystal structure; co-crystal of CnAcs1 (10 mg/mL in 20 mM NaCl, 20 mM Tris pH 8.5, 1 mM TCEP) with 2 mM isoxazole 1; sitting drop vapor diffusion at 18 °C; PDB 9CD8.
The target in assay [4] is T1, CnAcs1 (acetyl CoA synthetase). The assay can be described thus: coupled pyrophosphate-release enzyme assay. Type of assay: biochemical.

As to `Nc1ncnc2c1ncn2[C@@H]1O[C@H](COP(=O)(O)OC2CC2)[C@@H](O)[C@H]1O` [cyclopropyl-AMP], the IC50 in assay [1] was 9 µM.

As to “Cryptococcus neoformans Acs1 (acetyl CoA synthetase) (enzyme)”, the stoichiometry N in assay [2] and in assay [3] was 3 throughout. The compound `O=C(NNC(=O)c1csnn1)c1ccc(Cl)cc1` [MMV084978] had a concentration for half-maximal inhibition (IC50) in assay [4] of 2.8 µM.
